Assay results taken from ChEMBL document CHEMBL4765356, “Synthesis and biological evaluation of thiophenylbenzofuran derivatives as potential P-glycoprotein inhibitors” (Eur J Med Chem, 2020).

How the values were obtained:
HeLa = experiment: Cytotoxicity against human HeLa cells assessed as reduction in cell viability measured after 72 hrs by SRB assay; type: cell-based
[1] = Cytotoxicity against Flp-In-293 cells assessed as reduction in cell viability measured after 72 hrs by SRB assay; type: cell-based; conditions: Homo sapiens, Flp-In-293, 72 h
[2] = Cytotoxicity against Flp-In-293 cells expressing human ABCB1 assessed as reduction in cell viability measured after 72 hrs by SRB assay; type: ADME, cell-based; conditions: Flp-In-293, 72 h
[3] = Cytotoxicity against human KB-VIN cells assessed as reduction in cell viability measured after 72 hrs by SRB assay; type: cell-based; conditions: KBVIN

Measured: IC50

COc1ccc(CCN(C)CCCC(C#N)(c2ccc(OC)c(OC)c2)C(C)C)cc1OC (centres undefined)
> 50 µM: HeLa | [1] | [2] | [3]
